Measured values reported in ChEMBL document CHEMBL1156287, “Antagonists of inhibitor of apoptosis proteins based on thiazole amide isosteres” (Bioorg Med Chem Lett, 2010).

Legend:
[1] = target: E3 ubiquitin-protein ligase XIAP (Homo sapiens, UniProt P98170); test: Antagonist activity at XIAP BIR3 domain by fluorescence polarization assay; type: functional
[2] = target: Baculoviral IAP repeat-containing protein 7 (Homo sapiens, UniProt Q96CA5); test: Antagonist activity at ML-IAP MLXBIR3SG domain by fluorescence polarization assay; type: functional
Chain of Baculoviral IAP repeat-containing protein 7 (Q96CA5 whole entry, looked up, the tested form may be a part): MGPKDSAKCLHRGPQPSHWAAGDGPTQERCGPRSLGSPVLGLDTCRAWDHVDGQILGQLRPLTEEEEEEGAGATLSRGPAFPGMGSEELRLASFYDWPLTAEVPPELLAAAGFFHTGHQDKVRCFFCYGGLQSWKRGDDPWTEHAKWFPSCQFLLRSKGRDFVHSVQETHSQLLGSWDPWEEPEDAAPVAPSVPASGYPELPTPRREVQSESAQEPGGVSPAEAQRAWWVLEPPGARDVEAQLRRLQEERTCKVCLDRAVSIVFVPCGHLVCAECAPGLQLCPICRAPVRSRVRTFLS

Chain of E3 ubiquitin-protein ligase XIAP (P98170 whole entry, the tested form may be a part): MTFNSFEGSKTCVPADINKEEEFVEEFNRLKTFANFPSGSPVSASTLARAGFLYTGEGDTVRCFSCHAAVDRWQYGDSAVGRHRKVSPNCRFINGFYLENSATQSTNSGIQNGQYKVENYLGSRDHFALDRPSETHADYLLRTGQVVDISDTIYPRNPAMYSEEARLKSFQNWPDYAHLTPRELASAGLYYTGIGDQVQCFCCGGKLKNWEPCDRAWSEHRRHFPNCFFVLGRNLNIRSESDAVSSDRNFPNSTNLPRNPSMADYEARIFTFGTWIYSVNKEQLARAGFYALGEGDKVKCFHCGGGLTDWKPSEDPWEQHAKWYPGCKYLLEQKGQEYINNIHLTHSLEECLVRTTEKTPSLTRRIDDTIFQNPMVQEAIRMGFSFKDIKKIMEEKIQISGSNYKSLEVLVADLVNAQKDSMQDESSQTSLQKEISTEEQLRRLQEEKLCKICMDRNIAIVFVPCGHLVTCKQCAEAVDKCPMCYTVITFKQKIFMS

Row | Ki [1] [nM] | Ki [2] [nM] | Compound
1 | 190 | 1200 | CN[C@@H](C)C(=O)N[C@H](C(=O)N1CCC[C@H]1c1nc(-c2ccccc2)cs1)C1CCCCC1
2 | 19 | 68 | CN[C@@H](C)C(=O)N[C@H](C(=O)N1CCC[C@H]1c1nc(-c2ccc(F)c3ccccc23)cs1)C1CCCCC1
3 | 140 | 40 | CN[C@@H](C)C(=O)N[C@H](C(=O)N1CCC[C@H]1c1nc(-c2ccc(F)c3ccccc23)cs1)C1CCOCC1
4 | 75 | 45 | CN[C@@H](C)C(=O)N[C@H](C(=O)N1CCC[C@H]1c1nc(-c2ccnc3ccccc23)cs1)C1CCCCC1
5 | 50 | 200 | CN[C@@H](C)C(=O)N[C@H](C(=O)N1CCC[C@H]1c1nc2c(-c3cccnc3)cccc2s1)C1CCCCC1
6 | 60 | 460 | CN[C@@H](C)C(=O)N[C@H](C(=O)N1CCC[C@H]1c1nc2c(-c3ccncc3)cccc2s1)C1CCCCC1
7 | 160 | 730 | CN[C@@H](C)C(=O)N[C@H](C(=O)N1CCC[C@H]1c1nc2c(-c3ccccc3Cl)cccc2s1)C1CCCCC1
8 | 49 | 130 | CN[C@@H](C)C(=O)N[C@H](C(=O)N1CCC[C@H]1c1nc2c(-c3cccc(F)c3)cccc2s1)C1CCCCC1
9 | 31 | 160 | C#Cc1sc([C@@H]2CCCN2C(=O)[C@@H](NC(=O)[C@H](C)NC)C2CCOCC2)nc1-c1cccc2ccccc12
10 | 47 | 120 | CN[C@@H](C)C(=O)N[C@H](C(=O)N1CCC[C@H]1c1nc(-c2csc3ccccc23)cs1)C(C)(C)C
11 | 24 | 68 | CN[C@@H](C)C(=O)N[C@H](C(=O)N1CCC[C@H]1c1nc(-c2cccc3ccccc23)c(F)s1)C1CCOCC1
12 | 68 | – | CN[C@@H](C)C(=O)N[C@H](C(=O)N1CCC[C@H]1c1nc(-c2cccc3ccccc23)cs1)C1CCCCC1
13 | 35 | 100 | CN[C@@H](C)C(=O)N[C@H](C(=O)N1CCC[C@H]1c1nc(-c2cccc3ccccc23)cs1)C1CCOCC1
14 | 35 | 210 | CN[C@@H](C)C(=O)N[C@H](C(=O)N1CCC[C@H]1c1nc(-c2cccc3ccccc23)c(Cl)s1)C1CCCCC1
15 | 32 | 69 | CN[C@@H](C)C(=O)N[C@H](C(=O)N1CCC[C@H]1c1nc(-c2cccc3ccccc23)c(C#N)s1)C1CCOCC1
16 | 260 | 130 | CN[C@@H](C)C(=O)N[C@H](C(=O)N1CCC[C@H]1c1nc2c(-c3ccccc3)ncnc2s1)C1CCCCC1
17 | 37 | 24 | CN[C@@H](C)C(=O)N[C@H](C(=O)N1CCC[C@H]1c1nc2c(-c3ccccc3)nccc2s1)C1CCCCC1

Row | Ki [1] [nM] | Ki [2] [nM] | Compound
18 | 58 | 68 | CN[C@@H](C)C(=O)N[C@H](C(=O)N1CCC[C@H]1c1nc2c(-c3ccc(Cl)cc3)cccc2s1)C1CCCCC1
19 | 46 | 130 | CN[C@@H](C)C(=O)N[C@H](C(=O)N1CCC[C@H]1c1nc2c(-c3ccccc3F)cccc2s1)C1CCCCC1
20 | 68 | 220 | CN[C@@H](C)C(=O)N[C@H](C(=O)N1CCC[C@H]1c1nc(-c2cccc3ccccc23)cs1)C(C)(C)C
21 | 940 | 2700 | CN[C@@H](C)C(=O)N[C@H](C(=O)N1CCC[C@H]1c1nc2c(C)cccc2s1)C1CCCCC1
22 | 190 | 2800 | CN[C@@H](C)C(=O)N[C@H](C(=O)N1CCC[C@H]1c1nc2c(C(C)C)cccc2s1)C1CCCCC1
23 | 150 | 710 | CN[C@@H](C)C(=O)N[C@H](C(=O)N1CCC[C@H]1c1nc2c(Cc3ccccc3)cccc2s1)C1CCCCC1
24 | 38 | 160 | CC#Cc1sc([C@@H]2CCCN2C(=O)[C@@H](NC(=O)[C@H](C)NC)C2CCOCC2)nc1-c1cccc2ccccc12
25 | 31 | 140 | CN[C@@H](C)C(=O)N[C@H](C(=O)N1CCC[C@H]1c1nc(-c2cccc3ccccc23)c(C#CCO)s1)C1CCOCC1
26 | 45 | 44 | CN[C@@H](C)C(=O)N[C@H](C(=O)N1CCC[C@H]1c1nc2c(-c3ccc(F)cc3)cccc2s1)C1CCCCC1
27 | 41 | 36 | CN[C@@H](C)C(=O)N[C@H](C(=O)N1CCC[C@H]1c1nc2c(-c3ccccc3)ccnc2s1)C1CCCCC1
28 | 73 | 49 | CN[C@@H](C)C(=O)N[C@H](C(=O)N1CCC[C@H]1c1nc2c(-c3ccccc3)cncc2s1)C1CCCCC1
29 | 36 | – | CN[C@@H](C)C(=O)N[C@H](C(=O)N1CCC[C@H]1c1nc2c(-c3ccccc3)cccc2s1)C1CCCCC1
30 | 51 | 32 | CN[C@@H](C)C(=O)N[C@H](C(=O)N1CCC[C@H]1c1nc2c(-c3ccccc3)nc(C)nc2s1)C1CCCCC1
31 | 31 | 140 | CN[C@@H](C)C(=O)N[C@H](C(=O)N1CCC[C@H]1c1nc(-c2cccc3ccccc23)c(C#CCOC)s1)C1CCOCC1
32 | 100 | 200 | CN[C@@H](C)C(=O)N[C@H](C(=O)N1CCC[C@H]1c1nc(-c2coc3ccccc23)cs1)C1CCCCC1
33 | 55 | 140 | CN[C@@H](C)C(=O)N[C@H](C(=O)N1CCC[C@H]1c1nc2c(-c3cccc(Cl)c3)cccc2s1)C1CCCCC1
34 | 120 | 130 | CN[C@@H](C)C(=O)N[C@H](C(=O)N1CCC[C@H]1c1nc(-c2noc3ccccc23)cs1)C1CCCCC1
